The values below come from ChEMBL document CHEMBL1135518 (J Med Chem, 2002).

pIC50, pKi: −log10 of the molar value.

Assay [1] concerns Rattus norvegicus. Nature of the assay: The increase in the extracellular levels of DOPAC in the rat ventral hippocampus at a dose of 5.0 mg/kg sc measured by in vivo microdialysis. The class given is functional. Particulars: route subcutaneous.
A short description of assay [2]: The binding affinity at the Histamine H1 receptor determined using [3H]pyrilamine. Details: species or system Cavia porcellus.
Assay [3] has as its target Norepinephrine transporter (Rattus norvegicus, UniProt Q9WTR4). Put plainly: The binding affinity at the Norepinephrine transporter reuptake sites determined using competition binding assay.
For assay [4], the target named is Sodium-dependent serotonin transporter (Rattus norvegicus, UniProt P31652). Nature of the assay: The binding affinity at the 5-HT reuptake sites determined using competition binding assay.
Sequence of Sodium-dependent serotonin transporter (P31652 whole entry): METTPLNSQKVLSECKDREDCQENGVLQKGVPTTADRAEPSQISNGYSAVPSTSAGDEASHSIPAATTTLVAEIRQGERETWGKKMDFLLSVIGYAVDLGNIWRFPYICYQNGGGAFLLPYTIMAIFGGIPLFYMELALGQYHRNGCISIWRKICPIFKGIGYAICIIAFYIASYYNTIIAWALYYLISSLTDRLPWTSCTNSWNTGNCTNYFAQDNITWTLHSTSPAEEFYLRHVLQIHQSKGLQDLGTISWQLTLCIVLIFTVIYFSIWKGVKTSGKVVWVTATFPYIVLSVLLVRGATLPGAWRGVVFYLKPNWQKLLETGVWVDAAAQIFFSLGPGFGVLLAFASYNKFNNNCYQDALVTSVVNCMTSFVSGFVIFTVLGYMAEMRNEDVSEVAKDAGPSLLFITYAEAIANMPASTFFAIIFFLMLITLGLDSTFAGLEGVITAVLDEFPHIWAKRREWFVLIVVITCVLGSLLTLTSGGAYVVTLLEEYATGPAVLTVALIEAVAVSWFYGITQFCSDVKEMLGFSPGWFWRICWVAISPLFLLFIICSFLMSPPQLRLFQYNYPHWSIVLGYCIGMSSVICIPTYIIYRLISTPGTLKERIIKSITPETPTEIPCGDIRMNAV
In assay [5] the target is T1, 5-hydroxytryptamine receptor 2C (Rattus norvegicus, UniProt P08909).
T1 sequence (P08909 whole entry): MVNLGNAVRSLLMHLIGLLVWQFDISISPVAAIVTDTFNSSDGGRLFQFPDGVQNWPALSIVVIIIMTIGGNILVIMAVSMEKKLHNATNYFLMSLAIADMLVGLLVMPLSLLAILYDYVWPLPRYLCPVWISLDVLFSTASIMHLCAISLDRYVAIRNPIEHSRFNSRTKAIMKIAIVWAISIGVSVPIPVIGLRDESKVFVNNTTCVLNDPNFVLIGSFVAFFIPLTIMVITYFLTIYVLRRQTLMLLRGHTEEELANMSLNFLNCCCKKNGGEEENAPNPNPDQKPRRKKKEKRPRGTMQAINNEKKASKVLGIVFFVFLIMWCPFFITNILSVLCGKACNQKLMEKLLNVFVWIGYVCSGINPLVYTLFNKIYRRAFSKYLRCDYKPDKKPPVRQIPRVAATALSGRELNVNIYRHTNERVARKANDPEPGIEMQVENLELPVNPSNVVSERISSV
Put plainly: The binding affinity at 5-hydroxytryptamine 2C receptor was determined using [3H]mesulergine.

In assay [6] the test system is Rattus norvegicus. Nature of the assay: The increase in the extracellular levels of 5-HT in the rat ventral hippocampus at a dose of 5.0 mg/kg sc measured by in vivo microdialysis. The class given is functional. Particulars: route subcutaneous.
Assay [7] has as its target T2, Adrenergic receptor alpha-1 (Rattus norvegicus, UniProt P15823+P23944+P43140).
T2 sequence (P15823 whole entry): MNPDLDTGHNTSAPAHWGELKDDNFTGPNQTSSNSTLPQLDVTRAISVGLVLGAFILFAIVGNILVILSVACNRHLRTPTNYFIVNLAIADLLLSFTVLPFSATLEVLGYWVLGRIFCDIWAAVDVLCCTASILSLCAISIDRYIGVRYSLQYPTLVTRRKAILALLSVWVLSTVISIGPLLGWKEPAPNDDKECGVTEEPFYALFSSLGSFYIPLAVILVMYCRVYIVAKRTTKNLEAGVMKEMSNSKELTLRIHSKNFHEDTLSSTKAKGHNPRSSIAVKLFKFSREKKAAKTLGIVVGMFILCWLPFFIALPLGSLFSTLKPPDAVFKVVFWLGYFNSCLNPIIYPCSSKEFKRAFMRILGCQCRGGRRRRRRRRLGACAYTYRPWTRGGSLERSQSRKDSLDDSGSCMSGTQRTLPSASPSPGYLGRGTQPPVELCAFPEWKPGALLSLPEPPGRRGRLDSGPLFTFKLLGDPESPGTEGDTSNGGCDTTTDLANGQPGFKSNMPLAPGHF
T2 sequence (P23944 whole entry): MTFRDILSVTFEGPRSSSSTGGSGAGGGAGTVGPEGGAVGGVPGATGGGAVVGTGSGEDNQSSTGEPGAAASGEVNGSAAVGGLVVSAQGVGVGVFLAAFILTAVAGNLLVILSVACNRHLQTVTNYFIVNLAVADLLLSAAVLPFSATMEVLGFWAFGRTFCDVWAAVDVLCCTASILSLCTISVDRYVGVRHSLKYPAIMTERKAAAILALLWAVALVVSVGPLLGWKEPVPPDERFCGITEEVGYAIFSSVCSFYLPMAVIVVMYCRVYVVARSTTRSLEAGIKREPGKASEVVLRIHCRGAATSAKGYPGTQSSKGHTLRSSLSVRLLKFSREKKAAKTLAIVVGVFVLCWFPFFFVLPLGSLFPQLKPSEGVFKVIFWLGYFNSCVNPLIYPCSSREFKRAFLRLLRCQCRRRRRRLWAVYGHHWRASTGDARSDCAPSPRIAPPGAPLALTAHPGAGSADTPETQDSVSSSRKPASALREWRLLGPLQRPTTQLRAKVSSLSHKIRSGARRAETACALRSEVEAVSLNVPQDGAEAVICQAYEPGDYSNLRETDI
T2 sequence (P43140 whole entry): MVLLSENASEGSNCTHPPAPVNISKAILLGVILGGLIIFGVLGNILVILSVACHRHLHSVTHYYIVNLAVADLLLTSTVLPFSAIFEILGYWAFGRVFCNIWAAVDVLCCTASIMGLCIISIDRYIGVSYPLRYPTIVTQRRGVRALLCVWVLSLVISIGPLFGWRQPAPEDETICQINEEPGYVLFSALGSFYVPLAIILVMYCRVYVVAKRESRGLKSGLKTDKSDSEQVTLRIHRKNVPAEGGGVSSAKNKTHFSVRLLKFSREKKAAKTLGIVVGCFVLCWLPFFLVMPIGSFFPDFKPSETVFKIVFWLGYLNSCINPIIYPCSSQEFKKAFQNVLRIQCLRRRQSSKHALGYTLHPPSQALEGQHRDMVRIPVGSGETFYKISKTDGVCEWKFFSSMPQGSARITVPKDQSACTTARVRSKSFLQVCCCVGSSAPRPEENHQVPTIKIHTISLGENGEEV
Put plainly: The binding affinity at Alpha-1 adrenergic receptor determined using [3H]prazosin. Format: protein assay.

Assay [8] has as its target T3, D(4) dopamine receptor (Homo sapiens, UniProt P21917).
T3 sequence (P21917 whole entry): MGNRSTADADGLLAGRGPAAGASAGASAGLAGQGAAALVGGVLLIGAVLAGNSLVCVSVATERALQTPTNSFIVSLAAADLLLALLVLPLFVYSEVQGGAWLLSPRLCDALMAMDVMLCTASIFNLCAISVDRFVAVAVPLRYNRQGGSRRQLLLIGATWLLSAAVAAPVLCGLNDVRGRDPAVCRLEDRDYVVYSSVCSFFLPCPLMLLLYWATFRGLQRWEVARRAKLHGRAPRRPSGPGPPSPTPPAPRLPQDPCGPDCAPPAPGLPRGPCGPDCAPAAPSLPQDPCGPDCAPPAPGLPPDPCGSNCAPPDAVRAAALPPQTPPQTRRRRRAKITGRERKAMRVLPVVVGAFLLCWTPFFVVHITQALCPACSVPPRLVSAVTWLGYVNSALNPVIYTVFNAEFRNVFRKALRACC
Put plainly: The binding affinity at the Dopamine receptor D4 determined using [3H]YM-09151-2.

In assay [9] the target is 5-hydroxytryptamine receptor 2A (Rattus norvegicus, UniProt P14842). Nature of the assay: The binding affinity at 5-hydroxytryptamine 2A receptor was determined using [3H]ketanserin.
Sequence of 5-hydroxytryptamine receptor 2A (P14842 whole entry): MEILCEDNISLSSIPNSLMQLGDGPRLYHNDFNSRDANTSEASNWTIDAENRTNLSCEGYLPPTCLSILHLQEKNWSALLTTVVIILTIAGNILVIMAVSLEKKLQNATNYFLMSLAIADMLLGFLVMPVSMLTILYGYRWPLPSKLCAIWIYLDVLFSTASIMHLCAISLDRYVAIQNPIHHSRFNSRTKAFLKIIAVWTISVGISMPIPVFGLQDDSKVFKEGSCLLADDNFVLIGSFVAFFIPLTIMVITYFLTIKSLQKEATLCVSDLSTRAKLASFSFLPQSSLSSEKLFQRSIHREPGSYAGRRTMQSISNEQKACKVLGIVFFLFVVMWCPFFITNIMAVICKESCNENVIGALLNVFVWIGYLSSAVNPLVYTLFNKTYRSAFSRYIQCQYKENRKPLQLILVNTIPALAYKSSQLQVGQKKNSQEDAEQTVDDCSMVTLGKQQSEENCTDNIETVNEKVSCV
Assay [10] has as its target T4, Adrenergic receptor alpha-2 (Rattus norvegicus, UniProt P22086+P19328+P22909).
T4 sequence (P22086 whole entry): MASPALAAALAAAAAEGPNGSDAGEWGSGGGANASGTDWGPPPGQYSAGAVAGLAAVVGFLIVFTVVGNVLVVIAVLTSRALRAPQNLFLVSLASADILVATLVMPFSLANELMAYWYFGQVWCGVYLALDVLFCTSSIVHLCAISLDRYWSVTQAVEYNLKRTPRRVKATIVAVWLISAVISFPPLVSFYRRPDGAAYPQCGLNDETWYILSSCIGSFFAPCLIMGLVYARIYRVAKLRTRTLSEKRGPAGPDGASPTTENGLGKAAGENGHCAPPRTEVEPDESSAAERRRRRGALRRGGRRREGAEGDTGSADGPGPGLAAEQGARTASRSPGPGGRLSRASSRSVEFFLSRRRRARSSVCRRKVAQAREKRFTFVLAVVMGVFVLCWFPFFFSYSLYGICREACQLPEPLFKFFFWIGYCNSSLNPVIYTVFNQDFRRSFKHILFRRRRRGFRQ
T4 sequence (P19328 whole entry): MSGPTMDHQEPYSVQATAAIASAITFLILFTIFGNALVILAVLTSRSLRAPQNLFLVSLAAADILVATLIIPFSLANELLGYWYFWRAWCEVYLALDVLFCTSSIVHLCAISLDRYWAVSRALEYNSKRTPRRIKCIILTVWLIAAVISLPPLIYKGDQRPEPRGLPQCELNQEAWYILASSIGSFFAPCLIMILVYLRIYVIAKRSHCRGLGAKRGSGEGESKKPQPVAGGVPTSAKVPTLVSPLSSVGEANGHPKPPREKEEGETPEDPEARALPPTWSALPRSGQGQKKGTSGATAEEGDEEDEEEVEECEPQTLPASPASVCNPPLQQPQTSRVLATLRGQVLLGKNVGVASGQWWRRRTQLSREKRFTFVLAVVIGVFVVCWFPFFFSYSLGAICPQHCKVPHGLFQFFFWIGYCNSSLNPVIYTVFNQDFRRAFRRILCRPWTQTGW
T4 sequence (P22909 whole entry): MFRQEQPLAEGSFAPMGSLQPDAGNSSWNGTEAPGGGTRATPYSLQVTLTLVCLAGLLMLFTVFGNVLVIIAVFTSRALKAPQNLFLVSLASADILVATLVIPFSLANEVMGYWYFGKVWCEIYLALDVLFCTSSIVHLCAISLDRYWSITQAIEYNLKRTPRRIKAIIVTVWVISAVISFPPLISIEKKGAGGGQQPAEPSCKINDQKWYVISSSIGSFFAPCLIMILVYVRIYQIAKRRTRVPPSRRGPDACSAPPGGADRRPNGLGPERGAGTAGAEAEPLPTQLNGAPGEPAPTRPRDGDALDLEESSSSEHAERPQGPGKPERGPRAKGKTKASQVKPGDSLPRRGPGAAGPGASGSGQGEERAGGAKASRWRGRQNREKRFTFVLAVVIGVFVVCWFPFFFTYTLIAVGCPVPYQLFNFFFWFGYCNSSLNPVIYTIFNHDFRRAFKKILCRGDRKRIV
Put plainly: The binding affinity at the Alpha-2 adrenergic receptor determined using [3H]RX-821002; Not tested. The class given is protein assay.

As usually defined, the pKi is −log10 of the Ki, conventionally taken in molar units. A higher pKi goes with a low Ki. As usually defined, the pIC50 is −log10 of the IC50, conventionally taken in molar units. A high value points to a low IC50. By Ki is commonly meant the dissociation constant of the complex between target and ligand, obtained from inhibition or displacement. The IC50 is the point on the concentration scale where inhibition reaches its midpoint. Low values mean greater potency in that assay, high ones weaker potency in that assay.

Sequence of Norepinephrine transporter (Q9WTR4 whole entry): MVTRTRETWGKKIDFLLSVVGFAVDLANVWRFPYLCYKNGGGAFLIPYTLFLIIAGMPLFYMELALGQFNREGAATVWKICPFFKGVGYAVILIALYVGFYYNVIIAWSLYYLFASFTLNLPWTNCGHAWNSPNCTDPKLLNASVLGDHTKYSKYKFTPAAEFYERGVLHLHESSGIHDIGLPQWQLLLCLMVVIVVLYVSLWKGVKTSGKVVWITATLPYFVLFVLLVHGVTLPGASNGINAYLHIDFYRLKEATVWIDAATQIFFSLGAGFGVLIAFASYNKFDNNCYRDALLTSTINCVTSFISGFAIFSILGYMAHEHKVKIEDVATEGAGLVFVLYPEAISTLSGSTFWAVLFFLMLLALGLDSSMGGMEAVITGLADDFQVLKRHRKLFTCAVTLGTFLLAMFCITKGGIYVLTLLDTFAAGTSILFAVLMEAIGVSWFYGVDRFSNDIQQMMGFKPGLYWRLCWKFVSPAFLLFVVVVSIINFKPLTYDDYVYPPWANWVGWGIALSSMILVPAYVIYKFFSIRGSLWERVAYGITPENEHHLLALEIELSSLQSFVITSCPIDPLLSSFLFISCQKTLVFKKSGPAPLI

The compound `CN1CCN2c3ccccc3Cc3ccccc3C2C1` (racemic) [MIANSERIN] yielded an Increase in [1] of 160%. Moreover, the pKi in [2] is 8.38. The compound further showed a negative logarithm of the IC50 (pIC50) in assay [3] of 7.66.

Take `CN1CCN2c3ncccc3Cc3ccccc3C2C1` (racemic) [MIRTAZAPINE]: the Increase in [1] is reported as 200%; in assay [6], 180%. Also, the negative-log IC50 (pIC50) in [4] was less than 7.00; in assay [3], 6.59. Further, the negative logarithm of the Ki (pKi) in [5] was 8.26; in assay [2], 8.29; in [8], less than 7.60. Also, the Ki in assay [7] was found to be 1050 nM.

On to `CN1CCN2c3c(cccc3OS(=O)(=O)C(F)(F)F)Cc3ccccc3C2C1` (racemic), for which the negative logarithm of the IC50 (pIC50) in assay [9] was 6.56. The IC50 in assay [10] is recorded as 1000 nM.

`CN1CCN2c3c(O)cccc3Cc3ccccc3C2C1` (racemic) gave a pIC50 in [9] of 7.92. The pKi in [5] is 8.70; in assay [2], 7.68. The compound further showed a concentration for half-maximal inhibition (IC50) in assay [10] of 1000 nM. Moreover, the inhibition constant Ki in assay [7] was 1000 nM.
